# Measured values reported in US20250325695A1, “NANOPARTICLE FOR USE IN A PROPHYLAXIS OR IN A TREATMENT OF A CALCIFICATION OF BRUCHS MEMBRANE AND DRUSEN” (Universität Münster, priority 2024, published 2025).
# Legend:
# hCMEC/D3 cells = assay: WST-1 cytotoxicity assay, hCMEC/D3; assay type: cell-based, human; settings: 24 h incubation, highest concentration of range 0.5 to 250 μg/ml, related to pure medium
# Experimental: (§1) hCMEC/D3 cells were cultivated using RPMI 1640 supplemented with 1% (v/v) non-essential amino acids, 1% ([…] (200 mM), 1% (v/v) gentamicin, 1% (v/v) sodium pyruvate (100 mM), 550 nM hydrocortisone, and 20% (v/v) FBS. Jurkat cells were cultivated using RPMI 1640 supplemented with 1% (v/v) of a mixture of penicillin (100 U/ml) and streptomycin (100 μg/ml), 1% ([…] (200 mM), 1% (v/v) gentamicin, and 10% (v/v) FBS. Both cell lines were stored in T75 cell culture flasks in an incubator at a temperature of 37° C. and 100% humidity at 5% CO2 atmosphere. The cells were split twice a week at a ratio of approximately 1:3. After thawing, all experiments were conducted within a maximum of 20 passages. To evaluate the cytotoxicity of the NP formulations a WST-1 assay (Roche Diagnostics, Mannheim, Germany) was conducted on Jurkat and hCMEC/D3 cell lines. Human macrophages and HUVECs were tested applying a XTT assay (Sigma-Aldrich Chemie GmbH, Munich, Germany). After seeding Jurkat and hCMEC/D3 cells in a 96 well plate at a density of 2×10^4 cells/well (hCMEC/D3 cells suspended in 100 μL, Jurkat cells suspended in 50 μL), they were cultured for 48 h with serum containing medium. […] After 30 min, the absorbance was measured again. […] The blank measurement was subtracted and the absorbances were correlated to the controls. […]
# Jurkat cells = assay: WST-1 cytotoxicity assay, Jurkat; assay type: cell-based, human; settings: 24 h incubation, highest concentration of range 0.5 to 250 μg/ml
# Experimental: as §1
structure (smiles),measurement,setting,value
"O=C(O)CN(CCN(CC(=O)O)CC(=O)O)CCN(CC(=O)O)CC(=O)O [DTPA, diethylenetriaminepentaacetic acid]","cell viability, hCMEC/D3 cells",hCMEC/D3 cells,78.4±6.9%
same,"cell viability, Jurkat cells",Jurkat cells,73.0±6.6%
